Values joined by “and” are separate entries in the source; they are usually repeats but may differ in a detail not shown here. Identical values can stand only once. Inconclusive results and toxic doses are left out. The calls were made as follows: active = survival T/C of 150% or more; inactive = T/C below 125% in these data.
Tested on: CD2F1 mice, L1210 leukemia ip, survival T/C
Assay: NCI In Vivo Anticancer Drug Screen. Data for tumor model L1210 Leukemia (intraperitoneal) in CD2F1 (CDF1) mice
Settings: higher = longer survival
In short: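 Antitumor effect is scored in animals hosting a serially transplanted tumor. Values compare compound-dosed animals against vehicle-only controls as a simple quotient.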

[1] = endpoint: mean survival time, dose: 100.0 mg/kg/injection, schedule: Q04DX002 (ip), vehicle: saline with Tween-80
[2] = endpoint: mean survival time, dose: 100.0 mg/kg/injection, schedule: Q04DX003 (ip), vehicle: saline
[3] = endpoint: mean survival time, dose: 200.0 mg/kg/injection, schedule: Q04DX003 (ip), vehicle: saline
[4] = endpoint: mean survival time, dose: 400.0 mg/kg/injection, schedule: Q04DX003 (ip), vehicle: saline
[5] = endpoint: mean survival time, dose: 100.0 mg/kg/injection, schedule: Q04DX003 (ip), vehicle: saline with Tween-80
[6] = endpoint: mean survival time, dose: 200.0 mg/kg/injection, schedule: Q04DX003 (ip), vehicle: saline with Tween-80

Measured: T/C

O=C1CN(c2ccccc2)C(=O)C1C(=O)Nc1ccc(Cl)c(Cl)c1 (centres undefined)
inactive: endpoint: median survival time, dose: 25.9 mg/kg/injection, schedule: Q01DX005 (ip), vehicle: saline with Tween-80 104 % of control | endpoint: median survival time, dose: 30.0 mg/kg/injection, schedule: Q01DX005 (ip), vehicle: saline with Tween-80 97 % of control | endpoint: median survival time, dose: 43.0 mg/kg/injection, schedule: Q01DX005 (ip), vehicle: saline with Tween-80 101 % of control and 104 % of control | endpoint: median survival time, dose: 43.2 mg/kg/injection, schedule: Q01DX005 (ip), vehicle: saline with Tween-80 98 % of control and 104 % of control | endpoint: median survival time, dose: 60.0 mg/kg/injection, schedule: Q01DX005 (ip), vehicle: saline with Tween-80 102 % of control

CCOC1CCN(CCCn2c3ccccc3c3ccccc32)CC1
inactive: endpoint: mean survival time, dose: 25.0 mg/kg/injection, schedule: Q04DX002 (ip), vehicle: saline with Tween-80 95 % of control | endpoint: mean survival time, dose: 50.0 mg/kg/injection, schedule: Q04DX002 (ip), vehicle: saline with Tween-80 100 % of control | [1] 97 % of control and 111 % of control

CC(=O)O.[Th]
inactive: endpoint: mean survival time, dose: 100.0 mg/kg/injection, schedule: Q01DX001 (ip), vehicle: saline 92 % of control | endpoint: mean survival time, dose: 400.0 mg/kg/injection, schedule: Q01DX001 (ip), vehicle: saline 92 % of control

O=C(O)c1ccccc1C(=O)c1ccccc1
inactive: endpoint: mean survival time, dose: 100.0 mg/kg/injection, schedule: Q01DX009 (ip), vehicle: saline 97 % of control | [2] 90 % of control | endpoint: mean survival time, dose: 200.0 mg/kg/injection, schedule: Q01DX009 (ip), vehicle: saline 101 % of control | [3] 95 % of control | endpoint: mean survival time, dose: 400.0 mg/kg/injection, schedule: Q01DX009 (ip), vehicle: saline 101 % of control | [4] 103 % of control

CCCCCCCCCC1=NC(C)(C)CN1C(C)(C)CO
inactive: endpoint: mean survival time, dose: 1.25 mg/kg/injection, schedule: Q01DX009 (ip), vehicle: saline with Tween-80 106 % of control | endpoint: mean survival time, dose: 2.5 mg/kg/injection, schedule: Q01DX009 (ip), vehicle: saline with Tween-80 109 % of control | endpoint: mean survival time, dose: 5.0 mg/kg/injection, schedule: Q01DX009 (ip), vehicle: saline with Tween-80 91 % of control

CCOc1cccc(Cc2cn(Cc3ccc(NC(=O)c4ccc(S(=O)(=O)F)cc4)cc3)c(=O)[nH]c2=O)c1
inactive: endpoint: mean survival time, dose: 100.0 mg/kg/injection, schedule: Q01DX001 (ip), vehicle: saline with Tween-80 101 % of control | endpoint: mean survival time, dose: 200.0 mg/kg/injection, schedule: Q01DX001 (ip), vehicle: saline with Tween-80 95 % of control | endpoint: mean survival time, dose: 400.0 mg/kg/injection, schedule: Q01DX001 (ip), vehicle: saline with Tween-80 95 % of control

O=C(NO)c1cc(Br)cc(Br)c1O
inactive: [1] 96 % of control | endpoint: mean survival time, dose: 200.0 mg/kg/injection, schedule: Q04DX002 (ip), vehicle: saline with Tween-80 92 % of control | endpoint: mean survival time, dose: 400.0 mg/kg/injection, schedule: Q04DX002 (ip), vehicle: saline with Tween-80 103 % of control

CC(C)C1CCC2=C(CCC3C(C)(C(=O)O)CCCC23C)C1 (centres undefined)
inactive: [5] 95 % of control | [6] 88 % of control | endpoint: mean survival time, dose: 400.0 mg/kg/injection, schedule: Q04DX003 (ip), vehicle: saline with Tween-80 89 % of control

Clc1nnc(-c2ccccc2)s1
inactive: [5] 101 % of control | [6] 91 % of control

CC(c1ccccc1)N1CCCOP1(=O)N(CCCl)CCCl (centres undefined)
inactive: endpoint: mean survival time, dose: 6.25 mg/kg/injection, schedule: Q01DX009 (ip), vehicle: other 103 % of control | endpoint: mean survival time, dose: 12.5 mg/kg/injection, schedule: Q01DX009 (ip), vehicle: other 103 % of control and 94 % of control | endpoint: mean survival time, dose: 25.0 mg/kg/injection, schedule: Q01DX009 (ip), vehicle: other 98 % of control and 94 % of control | endpoint: mean survival time, dose: 31.3 mg/kg/injection, schedule: Q01DX001 (ip), vehicle: other 98 % of control and 112 % of control and 103 % of control | endpoint: mean survival time, dose: 31.3 mg/kg/injection, schedule: Q01DX001 (ip), vehicle: saline + alcohol 101 % of control | endpoint: mean survival time, dose: 50.0 mg/kg/injection, schedule: Q01DX009 (ip), vehicle: other 109 % of control and 94 % of control | endpoint: mean survival time, dose: 62.5 mg/kg/injection, schedule: Q01DX001 (ip), vehicle: other 98 % of control and 100 % of control and 103 % of control | endpoint: mean survival time, dose: 62.5 mg/kg/injection, schedule: Q01DX001 (ip), vehicle: saline + alcohol 94 % of control | endpoint: mean survival time, dose: 100.0 mg/kg/injection, schedule: Q01DX009 (ip), vehicle: other 115 % of control and 96 % of control | endpoint: mean survival time, dose: 125.0 mg/kg/injection, schedule: Q01DX001 (ip), vehicle: other 113 % of control and 108 % of control and 100 % of control | endpoint: mean survival time, dose: 125.0 mg/kg/injection, schedule: Q01DX001 (ip), vehicle: saline + alcohol 97 % of control | endpoint: mean survival time, dose: 200.0 mg/kg/injection, schedule: Q01DX009 (ip), vehicle: other 100 % of control | endpoint: mean survival time, dose: 250.0 mg/kg/injection, schedule: Q01DX001 (ip), vehicle: other 107 % of control and 100 % of control and 103 % of control | endpoint: mean survival time, dose: 250.0 mg/kg/injection, schedule: Q01DX001 (ip), vehicle: saline + alcohol 97 % of control | endpoint: mean survival time, dose: 500.0 mg/kg/injection, schedule: Q01DX001 (ip), vehicle: other 100 % of control and 103 % of control | endpoint: mean survival time, dose: 500.0 mg/kg/injection, schedule: Q01DX001 (ip), vehicle: saline + alcohol 91 % of control

Cc1ccc(S(=O)(=O)CC(=O)N2CCOCC2)cc1
inactive: [2] 102 % of control | [3] 96 % of control | [4] 98 % of control

NCC1OC(CO)C(O)C1O (centres undefined)
inactive: [2] 91 % of control | [3] 100 % of control | [4] 104 % of control

CC(C)(C)C1=CC(=O)C(Cl)(C(C)(C)C)C(Cl)C1=O (centres undefined)
inactive: endpoint: mean survival time, dose: 25.0 mg/kg/injection, schedule: Q01DX001 (ip), vehicle: saline with Tween-80 97 % of control | endpoint: mean survival time, dose: 50.0 mg/kg/injection, schedule: Q01DX001 (ip), vehicle: saline with Tween-80 93 % of control

From PubChem BioAssay AID256 (DTP/NCI, 2004)
